Results as given in patent publication US4528369A, “20-Dihydro-20-deoxy-23-de(mycinosyloxy)tylosin” (Eli Lilly and Company, priority 1983, dated 1985).
In brackets after ≈: the same amount, converted by molar mass. Entries after “also recorded” stand apart in the source; their conditions may differ. Read-outs that look alike come from different tables or passages of the source.

Key:
[1] = system: Staphylococcus aureus S13E; assay: MIC, standard agar-dilution assay (Table II); assay type: cell-based
Description: (§1) Tables II and III summarize the minimal inhibitory concentrations (MIC) at which 20-deoxo-DMOT and mycaminosyltylactone (as free bases) inhibit certain organisms. The MIC's in Table II were determined by standard agar-dilutionassays. The MIC's in Table III were obtained using a conventional broth-dilution microtiter test.

[2] = system: Streptococcus faecium ATCC 9790; assay: MIC, standard agar-dilution assay (Table II); assay type: cell-based; details: Enterococcus faecium, ATCC9790
Description: as §1

Escherichia coli EC14 = assay: MIC, standard agar-dilution assay (Table II); assay type: cell-based; details: free base, E. coli EC14
Description: as §1

Shigella sonnei N9 = assay: MIC, standard agar-dilution assay (Table II); assay type: cell-based; details: free base
Description: as §1

[3] = system: Klebsiella pneumoniae KAE; assay: MIC, standard agar-dilution assay (Table II); assay type: cell-based; details: free base, K. pneumoniae KAE
Description: as §1

[4] = system: Haemophilus influenzae 76; assay: MIC, standard agar-dilution assay (Table II); assay type: cell-based
Description: as §1

[5] = system: Streptococcus pyogenes C203; assay: MIC, standard agar-dilution assay (Table II); assay type: cell-based
Description: as §1

[6] = system: Klebsiella pneumoniae X26; assay: MIC, standard agar-dilution assay (Table II); assay type: cell-based
Description: as §1

Escherichia coli N10 = assay: MIC, standard agar-dilution assay (Table II); assay type: cell-based; details: free base, E. coli N10
Description: as §1

[7] = system: Staphylococcus aureus V41; assay: MIC, standard agar-dilution assay (Table II); assay type: cell-based; details: free base, S. aureus V41
Description: as §1

[8] = system: Streptococcus sp. group D 9960; assay: MIC, standard agar-dilution assay (Table II); assay type: cell-based
Description: as §1

[9] = system: Staphylococcus epidermidis EPI1; assay: MIC, standard agar-dilution assay (Table II); assay type: cell-based; details: free base, S. epidermidis EPI1
Description: as §1

[10] = system: Staphylococcus aureus NRRL B313; assay: MIC, standard agar-dilution assay (Table II); assay type: cell-based
Description: as §1

[11] = system: Haemophilus influenzae C.L.; assay: MIC, standard agar-dilution assay (Table II); assay type: cell-based
Description: as §1

Escherichia coli TEM = assay: MIC, standard agar-dilution assay (Table II); assay type: cell-based
Description: as §1

[12] = system: Streptococcus pneumoniae Park 1; assay: MIC, standard agar-dilution assay (Table II); assay type: cell-based; details: PARK1, free base, S. pneumoniae Park 1
Description: as §1

[13] = system: Staphylococcus epidermidis EPI2; assay: MIC, standard agar-dilution assay (Table II); assay type: cell-based; details: free base, S. epidermidis EPI2
Description: as §1

[14] = system: Staphylococcus aureus X400; assay: MIC, standard agar-dilution assay (Table II); assay type: cell-based
Description: as §1

[15] = system: pathogenic bacteria, especially gram-positive bacteria and Mycoplasma species; assay: Inhibition of growth of pathogenic bacteria (in words); assay type: cell-based
Description: as §1

[16] = system: Pasteurella multocida 60A; assay: MIC, conventional broth-dilution microtiter test (Table III); assay type: cell-based; details: free base, P. multocida 60A, avian isolate
Description: as §1

Mycoplasma gallisepticum = assay: as above; assay type: cell-based; details: Mycoplasmoides gallisepticum, free base, M. gallisepticum
Description: as §1

Mycoplasma synoviae = assay: as above; assay type: cell-based; details: Mycoplasmopsis synoviae, free base, M. synoviae
Description: as §1

Mycoplasma hyorhinis = assay: as above; assay type: cell-based; details: free base, M. hyorhinis
Description: as §1

[17] = system: Pasteurella hemolytica 22C; assay: as above; assay type: cell-based; details: free base, P. hemolytica 22C
Description: as §1

[18] = system: Pasteurella multocida 17E; assay: as above; assay type: cell-based; details: free base, P. multocida 17E, bovine isolate
Description: as §1

Solubility = assay type: physicochemical; details: free base

| Structure (SMILES) | MIC [1] | MIC (Escherichia coli EC14) | MIC (Shigella sonnei N9) | MIC [3] | MIC (Escherichia coli N10) | MIC [7] | MIC [9] | MIC (Escherichia coli TEM) | MIC [12] | MIC [13] | antibacterial activity (in words) [15] | MIC [16] | MIC (Mycoplasma gallisepticum) | MIC (Mycoplasma synoviae) | MIC (Mycoplasma hyorhinis) | MIC [17] | MIC [18] | also measured |
| --- | --- | --- | --- | --- | --- | --- | --- | --- | --- | --- | --- | --- | --- | --- | --- | --- | --- | --- |
| CCC1CC(C)C(=O)/C=C/C(C)=C/C(C)C(CC)OC(=O)CC(O)C(C)C1OC1OC(C)C(O)C(N(C)C)C1O (stereo not shown) [Mycaminosyltylactone, 5-O-mycaminosyltylactone] | 8 µg/mL (≈ 14.1 µM) | > 128 µg/mL | > 128 µg/mL | > 128 µg/mL | > 128 µg/mL | 16 µg/mL (≈ 28.2 µM) | 8 µg/mL (≈ 14.1 µM) | > 128 µg/mL | 4 µg/mL (≈ 7.05 µM) | 16 µg/mL (≈ 28.2 µM) | inhibit the growth of pathogenic bacteria, especially gram-positive bacteria and Mycoplasma species | 12.5 µg/mL (≈ 22 µM) | 1.56 µg/mL (≈ 2.75 µM) | 12.5 µg/mL (≈ 22 µM) | 50 µg/mL (≈ 88.1 µM) | 25 µg/mL (≈ 44 µM) | 12.5 µg/mL (≈ 22 µM) | MIC ([2]; free base, agar-dilution, S. faecium ATCC 9790, read-out: MIC): 32 µg/mL (≈ 56.4 µM); MIC ([4]; free base, agar-dilution, H. influenzae 76, read-out: MIC): 16 µg/mL (≈ 28.2 µM); MIC ([5]; free base, agar-dilution, S. pyogenes C203, read-out: MIC): 32 µg/mL (≈ 56.4 µM); MIC ([6]; free base, agar-dilution, K. pneumoniae X26, read-out: MIC): 8 µg/mL (≈ 14.1 µM); MIC ([8]; free base, agar-dilution, Streptococcus sp. group D 9960, read-out: MIC): 32 µg/mL (≈ 56.4 µM); MIC ([10]; NRRLB313, free base, agar-dilution, S. aureus NRRL B313, read-out: MIC): 16 µg/mL (≈ 28.2 µM); MIC ([11]; free base, agar-dilution, H. influenzae C.L., read-out: MIC): 16 µg/mL (≈ 28.2 µM); MIC ([14]; free base, agar-dilution, S. aureus X400, read-out: MIC): 32 µg/mL (≈ 56.4 µM) |
| CCC1CC(C)C(=O)/C=C/C(C)=C/C(C)C(CC)OC(=O)CC(O)C(C)C1OC1OC(C)C(OC2CC(C)(O)C(O)C(C)O2)C(N(C)C)C1O (stereo not shown) [20-Deoxo-DMOT, 20-dihydro-20-deoxy-23-de(mycinosyloxy)tylosin] | 64 µg/mL (≈ 89.9 µM) | > 128 µg/mL | > 128 µg/mL | > 128 µg/mL | > 128 µg/mL | 64 µg/mL (≈ 89.9 µM) | 64 µg/mL (≈ 89.9 µM) | > 128 µg/mL | 64 µg/mL (≈ 89.9 µM) | 64 µg/mL (≈ 89.9 µM) | some antibacterial activity; also recorded: inhibit the growth of pathogenic bacteria, especially gram-positive bacteria and Mycoplasma species | > 50 µg/mL | > 50 µg/mL | 50 µg/mL (≈ 70.2 µM) | 50 µg/mL (≈ 70.2 µM) | > 50 µg/mL | > 50 µg/mL | solubility in water (Solubility): slightly soluble in water; solubility in polar organic solvents (Solubility; acetone, methanol, ethanol, chloroform, dimethylformamide and dimethyl sulfoxide): soluble in most polar organic solvents such as acetone, methanol, ethanol, chloroform, dimethylformamide and dimethyl sulfoxide; MIC [2]: > 128 µg/mL; MIC [4]; 76: > 128 µg/mL; MIC ([5]; C203): 128 µg/mL (≈ 180 µM); MIC ([6]; X26): > 128 µg/mL; MIC ([8]; Streptococcus): > 128 µg/mL; MIC ([10]; NRRLB313): 128 µg/mL (≈ 180 µM); MIC [11]: > 128 µg/mL; MIC ([14]; X400): 128 µg/mL (≈ 180 µM) |
